Activity calls are given as the source filed them. No cut-off for these calls is given here.
Tests used:
[1] = molecular target: T1, Lymphocyte antigen 6K (Homo sapiens) (UniProt Q17RY6); assay: Binding affinity to human wild type LY6K at 1.25 to 5 uM measured upto 250 sec by SPR assay; settings: dose 1.25-5 µM
T1 sequence (whole entry): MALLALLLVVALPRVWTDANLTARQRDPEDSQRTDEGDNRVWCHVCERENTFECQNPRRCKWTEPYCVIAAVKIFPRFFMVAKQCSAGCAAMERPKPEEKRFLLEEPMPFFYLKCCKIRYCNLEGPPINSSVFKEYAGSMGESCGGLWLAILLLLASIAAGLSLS

[2] = molecular target: T1, Lymphocyte antigen 6K (Homo sapiens); assay: Inhibition of LY6K in human Hs-578T cells assessed as reduction in cell viability measured after 48 hrs by Cell titer blue assay; assay type: cell-based; settings: dose 5-10 µM
[3] = Drug uptake in human Serum starved Hs-578T cells assessed as drug localization in perinuclear region of cell at 2 uM measured after 2 hrs by DAPI staining based confocal microscopy; assay type: ADME
Hs-578T = assay: Antiproliferative activity against human Hs-578T cells transfected with LY6K-shRNA assessed as reduction in cell viability at 5 to 10 uM measured after 48 hrs by Cell titer blue assay; assay type: functional, cell-based; settings: dose 5-10 µM
[4] = Drug uptake in human Serum starved Hs-578T cells assessed as drug localization in membrane of the cell at 2 uM measured after 2 hrs by DAPI staining based confocal microscopy; assay type: ADME
[5] = Drug uptake in human Serum starved Hs-578T cells assessed as drug localization in cytoplasm of cell at 2 uM measured after 2 hrs by DAPI staining based confocal microscopy; assay type: ADME
Lymphocyte antigen 6K = molecular target: T2, Lymphocyte antigen 6K (Homo sapiens, UniProt Q17RY6); assay: Binding affinity to human wild type LY6K assessed as dissociation constant measured upto 250 sec by SPR assay
T2 sequence (Q17RY6 whole entry): T1 sequence (whole entry)

Activity [1]	Drug uptake [3]	Drug uptake [4]	Drug uptake [5]	Kd (Lymphocyte antigen 6K) [nM]	Compound	Activity [2]	Activity (Hs-578T)
Active					CCS(=O)(=O)Nc1ccc(Nc2c3ccccc3nc3cc(C(=O)OCc4ccccc4)ccc23)c(OC)c1		
Active	Active	Active	Active		CCS(=O)(=O)Nc1ccc(Nc2c3ccccc3nc3cc(C(=O)NCCCCCCNc4ccc([N+](=O)[O-])c5nonc45)ccc23)c(OC)c1	Dose-Dependent Effect	inactive
				300	CCS(=O)(=O)Nc1ccc(Nc2c3ccccc3nc3cc(C(=O)NCCOCCOCCOCCOCCOCCOCCOCCNC(=O)CCCC[C@@H]4SC[C@@H]5NC(=O)N[C@@H]54)ccc23)c(OC)c1	Dose-Dependent Effect	inactive
Active					CCS(=O)(=O)Nc1ccc(Nc2c3ccccc3nc3cc(NC(=O)CCCC[C@@H]4SC[C@@H]5NC(=O)N[C@@H]54)ccc23)c(OC)c1		
Dose-Dependent Effect					CCS(=O)(=O)Nc1ccc(Nc2c3ccccc3nc3cc([N+](=O)[O-])ccc23)c(OC)c1		
Dose-Dependent Effect				4700	CCS(=O)(=O)Nc1ccc(Nc2c3ccccc3nc3ccccc23)c(OC)c1	Dose-Dependent Effect	inactive
